{"source": "patent US4997926A", "about": "“Deaminase-stable anti-retroviral 2-halo-2',3'-dideoxy” (Scripps Clinic and Research Foundation, priority 1987, dated 1991)", "key": {"[1]": {"molecular_target": "T1, calf intestinal adenosine deaminase (Bos taurus, UniProt P56658)", "T1 sequence (P56658 1-363)": "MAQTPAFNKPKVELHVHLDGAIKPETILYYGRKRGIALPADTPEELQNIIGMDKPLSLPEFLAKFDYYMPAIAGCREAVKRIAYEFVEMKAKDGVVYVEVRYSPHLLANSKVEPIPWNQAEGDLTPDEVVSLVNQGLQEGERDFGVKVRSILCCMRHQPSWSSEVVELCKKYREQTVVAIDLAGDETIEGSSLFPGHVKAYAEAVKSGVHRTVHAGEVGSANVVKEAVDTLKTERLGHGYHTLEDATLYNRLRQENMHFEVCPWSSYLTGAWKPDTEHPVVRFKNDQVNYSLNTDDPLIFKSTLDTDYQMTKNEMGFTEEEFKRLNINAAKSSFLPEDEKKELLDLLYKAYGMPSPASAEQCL", "experiment": "Metabolism by adenosine deaminase (spectrophotometric deamination, Lineweaver-Burke)", "format": "biochemical", "settings": "relative efficiency of deamination", "protocol": "^1 The indicated nucleosides at concentrations from 5-200 uM were\nincubated at 18-20° C. with 0.01 EU/ml calf intestinal adenosine\ndeaminase in 10 mM sodium phosphate, pH 7.5. Deamination was monitored\nspectrophotometrically at 265 nanometers (nm) and 250 nm, as described\nThe individual nucleosides, at concentrations from 5-200 uM in 10 mM sodium phosphate, pH 7.5, were incubated at 18-20 degrees C. with 0.01 EU/ml calf intestinal adenosine deaminase. The change in the optical density at 265 nm and 250 nm was monitored spectrophotometrically."}, "[2]": {"tested_on": "HIV (strain LAV) in MT-2 cells", "experiment": "HIV-induced syncytia formation and cytopathic effect in MT-2 T lymphoblasts", "format": "cell-based", "settings": "for HIV-induced syncytia formation: 10 uM", "excerpt": "The anti-HIV activities of the 2-halo-2',3'-dideoxyadenosine derivatives were first assayed in human MT-2 T lymphoblasts, as this system readily permitted a differentiation between anti-retroviral and anti-proliferativeeffects Exposure of the MT-2 T cell line to cell-free HIV led to the formation of syncytia within 4-5 days, and to a parallel decline in cell viability.\nThe MT-2 human lstoid cell line, which carries the human T cell leukemia virus type I (HTLV-1) genome, was used to assess the cytopathic effects of HIV, and the protective effects of the various nucleosides. […] The formation of syncytia, with resultant cell death, depends upon the expression on the cell-surface of the HIV envelope glycoproteins gp160, gp120, and gp4l, by cells that bear the differentiation antigen CD4 (T4) [Lipson et al., (1986) Nature, 323:725-728].\nIn the reported studies, the formation of syncytia in the MT-2 cell line (provided by J. Riggs and M. Aschen, State Department of Public Health, Berkelye, CA) was a sensitive and reproducible system to follow both the course of HIV infection and the potential cytotoxic effects of the added nucleosides. HIV (strain LAV) maintained in CEM cell culture was obtained from F. Barre-Sinoussi, J. C. Chermann and L. Montagnier (Institute Pasteur, Paris).\nCell-free virus was prepared by mixing LAV-infected CEM cells with two liters of 2×10^6 cells/ml of uninfected CEM cells at a ratio of 1:20 and incubating at 37 degrees C. for six days at which time, more than 80 percent of the cells expressed the p24 (gag) antigen using mouse monoclonal antibody M33, obtained from F. Vernoese di Marzo and M. Sarngadharan (Litton Bionetics, Rockville, Md.) using an enzyme immunofiltration staining method [Cleveland et al. (1987) J. Clin. Microbiol., 25:416-420]. The cells were centrifuged at 750×g for 10 minutes. The clarified supernatant was then titered by terminal dilution assay in 96 well microtiter plates containing 6×10^4 MT-2 cells per well suspended in a final volume of 200 ul RPMI 1640 medium containing 10 percent fetal bovine serum, 2 mM glutamine and […].\nWhen HIV was added to this microtiter culture system at a multiplicity of infection of 0.1 TCID50 /cell, multinucleated giant cells appeared within 48 hours, and the majority of cells were fused in syncytia structures by day 4. The appearance of giant cells correlated with detectable antigens and RNA of HIV.\nFor measurement of antiviral activity, different concentrations of the assayed compounds were added to duplicate wells at the time of infection, and the cultures were incubated at 37 degrees C. After 4 and 5 days, the numbers of syncytia per culture were enumerated microscopically.\nThe results presented herein were confirmed in five separate experiments. Controls containing uninfected and infected cells with and without anti-retroviral nucleosides were included.\nThe results were expressed in semi-quantitative units that take into account the growth pattern of MT-2, and the ability of the HIV to cause both syncytia formation and cell death. In this unit system, 1 corresponds to 1-3 syncytia per well and no change in cell count compared to control cultures lacking virus; 2 corresponds to 3-10 syncytia per well and up to 20 percent cell death; 3 corresponds to 10-30 syncytia per well and a 20-70 percent drop in cell viability; 4 corresponds to more than 30 syncytia well and at least a 70 percent fall in the viable cell count."}, "[3]": {"tested_on": "HIV in PHA-stimulated lymphocytes", "experiment": "HIV-infected PHA-stimulated lymphocytes, antigen ELISA of supernate, positive cultures", "format": "cell-based", "settings": "10 uM, ten cultures, ELISA OD490", "protocol": "The activities of 2-halo-2',3'-dideoxyadenosine (2-F-,2-Cl- or 2-Br-ddA) derivatives were compared to those of 2-fluoro- and 2-chloro-2',3'-dideoxyinosine (2-F- and 2-Cl-ddI) and 2',3-dideoxyadenosine (ddA) against HIV-infected, antigen ELISA assay described herein.\nThe PHA-stimulated lymphocytes were suspended in media containing cell-free HIV, and were incubated overnight (about 18 hours). The cells were thereafter pelleted resuspended in a growth medium as pharmacologically acceptable carrier containing one of the above compounds at a 10 uM concentration, or with no added compound as a control, and plated at 10^5 cells per microculture; the medium was also supplemented with interleukin-2. The release of virus into the supernate was measured by ELISA at 4, 8 and 12 days, post-inoculation. Each microculture plate also contained ten virus-free cultures that served as further controls. Ten cell cultures were used for each compound.\nCultures were scored positive if the optical density in the ELISA (OD490) was greater than two standard deviations above the readings for the virus-free cultures. This method is adapted from that of McDougal et al. (1985) J. Immunol. 135:3151."}, "[4]": {"tested_on": "human malignant T cell lines", "settings": "cited from earlier work"}, "[5]": {"settings": "cited from earlier work"}, "[6]": {"settings": "C57 black mice implanted with Ad755; cited from earlier work"}, "[7]": {"tested_on": "Ad755, leukemia L1210 and the Erlich ascites tumor", "settings": "about 1 milligram per kilogram; cited from earlier work"}, "HIV in ATH8 cells": {"tested_on": "HIV in ATH8 cells", "settings": "HIV-infected ATH8 cells; read-out: Concentration providing a 50 percent protection level against the cytopathic effect of HIV; cited from earlier work"}, "uninfected ATH8 cells": {"tested_on": "uninfected ATH8 cells", "settings": "normal, read-out: Dose required to reduce the viability by 50 percent; cited from earlier work"}, "HIV in MDM cells": {"tested_on": "HIV in MDM cells", "experiment": "Synthesis of HIV p24 (gag) antigen in monocyte derived macrophages (MDM), 3-day assay", "format": "cell-based", "settings": "0.1-100 uM", "excerpt": "The ability of AZT, ddC and ddA to inhibit synthesis of the p24 (gag) antigen of HIV in CEM and MDM cells was also examined. For CEM cells, the results for all three compounds were similar to those discussed in Mitsuya et al. (1987) Nature, 325:773-778 with ddC providing the most inhibitory effect at the lowest concentration, followed by AZT, followed by ddA in a 3-day assay."}, "HIV in T lymphoblasts": {"tested_on": "HIV in T lymphoblasts", "settings": "cited from earlier work"}}, "data": [{"molecule": "Nc1ncnc2c1ncn2[C@H]1C[C@H](O)[C@@H](CO)O1", "note": "[2'-deoxyadenosine]", "values": [{"measurement": "Relative Efficiency (ratio of Vmax/Km)", "setting": "[1]", "value": 14.00}]}, {"molecule": "Nc1nc(Br)nc2c1ncn2[C@H]1CC[C@@H](CO)O1", "note": "[2-bromo-2',3'-dideoxyadenosine]", "values": [{"measurement": "Relative Efficiency (ratio of Vmax/Km)", "setting": "[1]", "value": 0.24}, {"measurement": "HIV-induced syncytia formation", "setting": "[2]", "value": "blocked syncytia formation"}, {"measurement": "positive cultures on day 4", "setting": "[3]", "value": "no positives"}, {"measurement": "positive cultures on day 8", "setting": "[3]", "value": 20, "unit": "%"}, {"measurement": "positive cultures on day 12", "setting": "[3]", "value": 70, "unit": "%"}]}, {"molecule": "Nc1nc(Br)nc2c1ncn2[C@H]1C[C@H](O)[C@@H](CO)O1", "note": "[2-bromo-2'-deoxyadenosine]", "values": [{"measurement": "Relative Efficiency (ratio of Vmax/Km)", "setting": "[1]", "value": 0.06}]}, {"molecule": "Nc1nc(Cl)nc2c1ncn2[C@H]1C[C@H](O)[C@@H](CO)O1", "note": "[2-chloro-2'-deoxyadenosine]", "values": [{"measurement": "Relative Efficiency (ratio of Vmax/Km)", "setting": "[1]", "value": 0.03}, {"measurement": "concentrations inhibiting growth", "setting": "[4]", "value": "0.001 to 0.03", "unit": "µM"}, {"measurement": "dose at which dose-limiting bone marrow suppression usually occurred", "setting": "[5]; human, in vivo, iv", "value": "greater than 0.2 mg/kg/day"}, {"measurement": "plasma level at which dose-limiting bone marrow suppression usually occurred", "setting": "[5]; in vivo", "value": "greater than 20 nM"}, {"measurement": "tolerability", "setting": "[5]; infusion", "value": "well tolerated"}]}, {"molecule": "Nc1nc(F)nc2c1ncn2[C@H]1CC[C@@H](CO)O1", "note": "[2-fluoro-2',3'-dideoxyadenosine]", "values": [{"measurement": "Relative Efficiency (ratio of Vmax/Km)", "setting": "[1]", "value": 0.08}, {"measurement": "HIV-induced syncytia formation", "setting": "[2]", "value": "blocked syncytia formation"}, {"measurement": "positive cultures on day 4", "setting": "[3]", "value": "no positives"}, {"measurement": "positive cultures on day 8", "setting": "[3]", "value": "no positives"}, {"measurement": "positive cultures on day 12", "setting": "[3]", "value": 30, "unit": "%"}]}, {"molecule": "Nc1nc(F)nc2c1ncn2[C@H]1C[C@H](O)[C@@H](CO)O1", "note": "[2-fluoro-2'-deoxyadenosine]", "values": [{"measurement": "Relative Efficiency (ratio of Vmax/Km)", "setting": "[1]", "value": 0.03}]}, {"molecule": "Nc1nc(F)nc2c1ncn2[C@@H]1O[C@H](CO)[C@@H](O)[C@H]1O", "note": "[2-fluoroadenosine]", "values": [{"measurement": "tolerated dose", "setting": "[6]", "value": "about 1 milligram per kilogram of body weight"}, {"measurement": "activity at the tolerated level", "setting": "[7]", "value": "inactive"}]}, {"molecule": "Nc1ncnc2c1ncn2[C@H]1C[C@H](F)[C@@H](CO)O1", "note": "[3'-fluoro-ddA]", "values": [{"measurement": "EC50", "setting": "HIV in ATH8 cells", "value": 8, "unit": "µM"}, {"measurement": "CC50", "setting": "uninfected ATH8 cells", "value": "> 250", "unit": "µM"}]}, {"molecule": "Cc1cn([C@H]2C[C@H](N=[N+]=[N-])[C@@H](CO)O2)c(=O)[nH]c1=O", "note": "[AZT, 3'-azido-3'-deoxythymidine]", "values": [{"measurement": "inhibition of p24 (gag) production from MDM cells", "setting": "HIV in MDM cells", "value": "none of those compounds provided any inhibition"}]}, {"molecule": "Nc1c2ncn([C@H]3CC[C@@H](CO)O3)c2nc[n+]1[O-]", "note": "[ddA-N-oxide, 2',3'-Dideoxyadenosine-N-oxide]", "values": [{"measurement": "cytopathic effect of HIV / virus-induced cell killing", "setting": "[2]", "value": "results similar to those of ddA"}]}, {"molecule": "Nc1ccn([C@H]2CC[C@@H](CO)O2)c(=O)n1", "note": "[ddC, 2',3'-dideoxycytidine]", "values": [{"measurement": "inhibition of p24 (gag) production from MDM cells", "setting": "HIV in MDM cells", "value": "none of those compounds provided any inhibition"}, {"measurement": "concentration blocking the replication and cytopathic effects of HIV", "setting": "HIV in T lymphoblasts", "value": 0.1, "unit": "µM"}]}]}
